Data reported in US20240287080A1 (IDEAYA Biosciences Inc., priority 2021, published 2024).

Target: T1, Pol theta (1-899) (Homo sapiens, UniProt O75417)
T1 construct: Pol theta (1-899) (5 nM) in assay buffer
Assay: Pol theta ATPase activity, NADH oxidation-coupled enzymatic assay (ATPase NADH coupling: Standard Screening: hPolQ)
Type: biochemical
Settings: Pol theta (1-899) 5 nM, NADH oxidation-coupled ATPase assay; compounds of Table 3
Procedure: The ability of the compounds of Formula (I) or Table 1 to inhibit ATPase activity of Pol theta (1-899) was determined using the assay described below. Pol Theta ATPase activity was determined by measuring the rate of ATP turn over in a NADH oxidation-coupled enzymatic assay. 10-point dilution series of compounds were used in a 384 well format for the inhibition assays. Pol theta (1-899) (5 nM) in assay buffer (20 mM Tris HCl (pH 7.80), 80 mM KCl, 10 mM MgCl2, 1 mM DTT, 0.01% BSA, 0.01% Tween, 5% glycerol) was transferred to the test wells (20 μL), except the low control wells (20 μL of assay buffer was added to the low control wells). The plate was then incubated at room temperature for 15 min. An equal volume (20 μL) of 100 μM ATP, 300 nM […] (single-stranded DNA (ssDNA) containing 50 thymine bases), 300 μM NADH, 6 mM PEP, 10 U/mL lactate dehydrogenase and 20 U/mL pyruvate kinase in assay buffer was added to all the test wells. The plate was then centrifuged at 1000 rpm for 1 min. The reaction was monitored for 60 min by measuring absorbance (λ=340 nm) in a Tecan Spark multimode plate reader every minute. The high control (DMSO with enzyme) with low absorbance intensity represents no inhibition of ATPase reaction while the low control (DMSO with buffer) with high absorbance intensity represents full inhibition of ATPase activity. Slope of the reaction progress curves were used to calculate the rate of ATP hydrolysis. The rates were used to determine the percent inhibition using a four-parameter inhibition model to generate IC50, Hill slope and max inhibition.

T1 sequence (O75417 1-899): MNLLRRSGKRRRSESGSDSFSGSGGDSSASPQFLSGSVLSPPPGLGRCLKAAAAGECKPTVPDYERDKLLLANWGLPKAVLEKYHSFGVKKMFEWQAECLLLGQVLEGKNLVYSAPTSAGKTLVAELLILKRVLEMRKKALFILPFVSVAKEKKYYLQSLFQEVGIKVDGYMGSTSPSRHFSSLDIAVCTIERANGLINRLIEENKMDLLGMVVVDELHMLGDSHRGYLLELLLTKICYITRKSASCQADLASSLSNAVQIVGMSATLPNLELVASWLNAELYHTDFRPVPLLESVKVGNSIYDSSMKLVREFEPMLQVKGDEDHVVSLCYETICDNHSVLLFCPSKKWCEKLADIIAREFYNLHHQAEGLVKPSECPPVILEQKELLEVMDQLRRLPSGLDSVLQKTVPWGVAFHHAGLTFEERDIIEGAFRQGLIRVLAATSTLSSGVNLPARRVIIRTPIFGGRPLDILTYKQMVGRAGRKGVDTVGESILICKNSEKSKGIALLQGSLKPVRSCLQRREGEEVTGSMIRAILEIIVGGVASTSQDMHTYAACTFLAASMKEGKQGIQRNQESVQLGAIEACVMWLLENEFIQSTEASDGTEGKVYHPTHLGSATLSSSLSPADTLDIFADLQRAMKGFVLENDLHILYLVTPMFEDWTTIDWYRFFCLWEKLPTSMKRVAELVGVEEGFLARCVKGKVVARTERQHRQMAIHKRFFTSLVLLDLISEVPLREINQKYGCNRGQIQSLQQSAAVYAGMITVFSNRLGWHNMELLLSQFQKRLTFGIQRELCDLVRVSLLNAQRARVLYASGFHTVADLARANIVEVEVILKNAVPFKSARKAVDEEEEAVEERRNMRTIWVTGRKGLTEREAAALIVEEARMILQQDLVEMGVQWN

| IC50 | Compound |
| --- | --- |
| 1000 to 10000 nM | COCCOc1cccc(-c2cc(C)ncc2C(=O)Nc2nnc(OC)s2)c1 [Example 429, N-(5-methoxy-1,3,4-thiadiazol-2-yl)-4-[3-(2-methoxyethoxy)phenyl]-6-methylpyridine-3-carboxamide] |
| 500 to 1000 nM | COc1cc(C)cc(-c2cc(C)ncc2C(=O)Nc2nnc(OC)s2)c1 [Example 422, N-(5-methoxy-1,3,4-thiadiazol-2-yl)-4-(3-methoxy-5-methylphenyl)-6-methylpyridine-3-carboxamide] |
| 1000 to 10000 nM | COc1nnc(NC(=O)c2cnc(C)cc2-c2ccc(S(C)(=O)=O)nc2)s1 [Example 455, N-(5-methoxy-1,3,4-thiadiazol-2-yl)-6′-methyl-6-(methylsulfonyl)-[3,4′-bipyridine]-3′-carboxamide] |
| 1000 to 10000 nM | COc1nnc(NC(=O)c2cnc(C)cc2-c2cc[nH]c(=O)c2)s1 [Example 364, N-(5-methoxy-1,3,4-thiadiazol-2-yl)-6-methyl-2′-oxo-1′,2′-dihydro-[4,4′-bipyridine]-3-carboxamide] |
| 1000 to 10000 nM | COc1nnc(NC(=O)c2cnc(C)cc2-c2cc(C)c([S@@+](C)[O-])cc2OC)s1 (single isomer, unassigned) [Example 308] |
| ≤ 200 nM | COc1cnc(Br)cc1-c1cc(C)ncc1C(=O)Nc1nnc(O[C@H]2CC[C@@H](CO)CC2)s1 [Example 268, 2′-bromo-N-(5-(((1s,4s)-4-(hydroxymethyl)cyclohexyl)oxy)-1,3,4-thiadiazol-2-yl)-5′-methoxy-6-methyl-[4,4′-bipyridine]-3-carboxamide] |
| 1000 to 10000 nM | COc1nnc(NC(=O)c2cnc(C)cc2-c2ccc(OC)c(F)c2)s1 [Example 419, 4-(3-fluoro-4-methoxyphenyl)-N-(5-methoxy-1,3,4-thiadiazol-2-yl)-6-methylpyridine-3-carboxamide] |
| ≤ 200 nM | COc1cnc(C)c(F)c1-c1cc(C)ncc1C(=O)Nc1nnc(O[C@H]2CCC[C@@H](O)C2)s1 (single isomer, unassigned) [Example 236] |
| ≤ 200 nM | COc1cnc(Cl)cc1-c1cc(C)ncc1C(=O)Nc1nnc(O[C@H]2CO[C@H]3[C@@H]2OC[C@H]3O[N+](=O)[O-])s1 [Example 238, (3R,3aS,6S,6aR)-6-((5-(2′-chloro-5′-methoxy-6-methyl-[4,4′-bipyridine]-3-carboxamido)-1,3,4-thiadiazol-2-yl)oxy)hexahydrofuro[3,2-b]furan-3-yl nitrate] |
| 1000 to 10000 nM | COc1nnc(NC(=O)c2cnc(C)cc2-c2ccc(N3CCCCC3)cc2)s1 [Example 476, N-(5-methoxy-1,3,4-thiadiazol-2-yl)-6-methyl-4-[4-(piperidin-1-yl)phenyl]pyridine-3-carboxamide] |
| 1000 to 10000 nM | COc1nnc(NC(=O)c2cnc(C)cc2-c2ccc(OC)c(C#N)c2)s1 [Example 345, 4-(3-cyano-4-methoxyphenyl)-N-(5-methoxy-1,3,4-thiadiazol-2-yl)-6-methylpyridine-3-carboxamide] |
| 1000 to 10000 nM | COc1ccc(-c2cc(C)ncc2C(=O)Nc2nnc(OC)s2)cn1 [Example 407, 6-methoxy-N-(5-methoxy-1,3,4-thiadiazol-2-yl)-6′-methyl-[3,4′-bipyridine]-3′-carboxamide] |
| ≤ 200 nM | COc1nnc(NC(=O)c2ccc([N+](=O)[O-])cc2-c2cc(Cl)ncc2OC)s1 [Example 300, 2-(2-chloro-5-methoxypyridin-4-yl)-N-(5-methoxy-1,3,4-thiadiazol-2-yl)-4-nitrobenzamide] |
| ≤ 200 nM | COc1cnc(Cl)cc1-c1cc(C)ncc1C(=O)Nc1nnc(OC2CCN(C3COC3)CC2)s1 [Example 280, 2′-chloro-5′-methoxy-6-methyl-N-(5-((1-(oxetan-3-yl)piperidin-4-yl)oxy)-1,3,4-thiadiazol-2-yl)-[4,4′-bipyridine]-3-carboxamide] |
| 1000 to 10000 nM | COc1nnc(NC(=O)c2cnc(C)cc2-c2ccc3c(c2)CC(=O)N3)s1 [Example 347, N-(5-methoxy-1,3,4-thiadiazol-2-yl)-6-methyl-4-(2-oxo-2,3-dihydro-1H-indol-5-yl)pyridine-3-carboxamide] |
| 500 to 1000 nM | COc1ccc(OC)c(-c2cc(C)ncc2C(=O)Nc2nnc(OC)s2)c1 [Example 486, 4-(2,5-dimethoxyphenyl)-N-(5-methoxy-1,3,4-thiadiazol-2-yl)-6-methylnicotinamide] |
| ≤ 200 nM | COc1nnc(NC(=O)c2cc(CC#N)ncc2-c2cc(Cl)ncc2OC)s1 [Example 302, 2′-chloro-6-(cyanomethyl)-5′-methoxy-N-(5-methoxy-1,3,4-thiadiazol-2-yl)-[3,4′-bipyridine]-4-carboxamide] |
| 500 to 1000 nM | COc1nnc(NC(=O)c2cnc(C)cc2-c2ccnc(C(F)(F)F)c2)s1 [Example 467, N-(5-methoxy-1,3,4-thiadiazol-2-yl)-6-methyl-2′-(trifluoromethyl)-[4,4′-bipyridine]-3-carboxamide] |
| ≤ 200 nM | COc1nnc(NC(=O)c2ccccc2-c2cc(Cl)ncc2OC)s1 [Example 291, 2-(2-chloro-5-methoxypyridin-4-yl)-N-(5-methoxy-1,3,4-thiadiazol-2-yl)benzamide] |

Same assay, conditions: Table 4; Pol theta (1-899) 5 nM, ATP, dT50 ssDNA

| IC50 | Compound |
| --- | --- |
| ≤ 200 nM | COc1nnc(NC(=O)c2cnc(C)cc2-c2c(OC)cnc(C)c2F)s1 [Example 61, 3′-fluoro-5′-methoxy-N-(5-methoxy-1,3,4-thiadiazol-2-yl)-2′,6-dimethyl-(4,4′-bipyridine)-3-carboxamide] |
| ≤ 200 nM | Cc1cc(-c2cc(Cl)ncc2OC(F)F)c(C(=O)Nc2nnc(OC3COC3)s2)cn1 [Example 62, 2′-chloro-5′-(difluoromethoxy)-6-methyl-N-(5-(oxetan-3-yloxy)-1,3,4-thiadiazol-2-yl)-(4,4′-bipyridine)-3-carboxamide] |
| ≤ 200 nM | COc1nnc(NC(=O)c2cnc(C)cc2-c2cc(C)ncc2OC)s1 [Example 8] |

Same assay, conditions: Table 5; Pol theta (1-899) 5 nM, ATP, dT50 ssDNA

| IC50 | Compound |
| --- | --- |
| ≤ 200 nM | COc1cnc(Cl)cc1-c1cc(C)ncc1C(=O)Nc1nnc(O[C@H]2CC[C@H](CO)CC2)s1 [Example 168, 2′-chloro-N-(5-(((1r,4r)-4-(hydroxymethyl)cyclohexyl)oxy)-1,3,4-thiadiazol-2-yl)-5′-methoxy-6-methyl-(4,4′-bipyridine)-3-carboxamide] |
| ≤ 200 nM | COc1cnc(Cl)cc1-c1cc(C)ncc1C(=O)Nc1nnc(O[C@H]2COC3(CC3)C2)s1 (single isomer, unassigned) [Example 117] |
| ≤ 200 nM | COc1cnc(Cl)cc1-c1cc(C)ncc1C(=O)Nc1nnc(O[C@H]2CC[C@H](C(C)(C)O)CC2)s1 [Example 187, 2′-chloro-N-(5-(((1r,4r)-4-(2-hydroxypropan-2-yl)cyclohexyl)oxy)-1,3,4-thiadiazol-2-yl)-5′-methoxy-6-methyl-(4,4′-bipyridine)-3-carboxamide] |
| 1000 to 10000 nM | COc1nnc(NC(=O)c2c[nH]nc2-c2cc(Cl)ncc2OC)s1 [Example 109, 3-(2-chloro-5-methoxypyridin-4-yl)-N-(5-methoxy-1,3,4-thiadiazol-2-yl)-1H-pyrazole-4-carboxamide] |
| ≤ 200 nM | COc1nnc(NC(=O)c2cnc(COC3CC3)cc2-c2cc(Cl)ncc2OC)s1 [Example 215, 2′-chloro-6-(cyclopropoxymethyl)-5′-methoxy-N-(5-methoxy-1,3,4-thiadiazol-2-yl)-(4,4′-bipyridine)-3-carboxamide] |
| ≤ 200 nM | COc1cnc(Cl)cc1-c1cc(C)ncc1C(=O)Nc1nnc(O[C@H]2CCC[C@](C)(O)C2)s1 (single isomer, unassigned) [Example 181] |
| ≤ 200 nM | COc1cnc(C)c(F)c1-c1cc(C)ncc1C(=O)Nc1nnc(O[C@@H]2C[C@H]3CC[C@@H]2O3)s1 (single isomer, unassigned) [Example 218] |
| 200 to 500 nM | COc1cnc(Cl)cc1-c1cc(C)ncc1C(=O)Nc1nnc(O[C@H]2CCC[C@@](C)(O)C2)s1 (racemic) [Example 177, rac-2′-chloro-N-(5-(((1R,3S)-3-hydroxy-3-methylcyclohexyl)oxy)-1,3,4-thiadiazol-2-yl)-5′-methoxy-6-methyl-(4,4′-bipyridine)-3-carboxamide] |
| 200 to 500 nM | COc1nnc(NC(=O)c2cnc(C)cc2-c2c(OC)cnc(Cl)c2C)s1 [Example 79, 2′-chloro-5′-methoxy-N-(5-methoxy-1,3,4-thiadiazol-2-yl)-3′,6-dimethyl-(4,4′-bipyridine)-3-carboxamide] |

| Compound | IC50 |
| --- | --- |
| COc1cnc(Cl)cc1-c1cc(C)ncc1C(=O)Nc1nnc(O[C@H]2C[C@@H](O)C2(C)C)s1 (single isomer, unassigned) [Example 183, 2′-chloro-N-(5-((1r,3s)-3-hydroxy-2,2-dimethylcyclobutoxy)-1,3,4-thiadiazol-2-yl)-5′-methoxy-6-methyl-(4,4′-bipyridine)-3-carboxamide] | ≤ 200 nM |
| COc1cnc(Cl)cc1-c1cc(C)ncc1C(=O)Nc1nnc(O[C@H]2CC[C@H]2O)s1 (racemic) [Example 112, rac-2′-chloro-N-(5-((1R,2S)-2-hydroxycyclobutoxy)-1,3,4-thiadiazol-2-yl)-5′-methoxy-6-methyl-(4,4′-bipyridine)-3-carboxamide] | 200 to 500 nM |
